Results published in PMC7083837 (Nature Communications, 2020).
“And” between values parts separate entries of the source, which are not always exact repeats. Equal values may be shown once. Values belong to the molecule of their own block, whether it stands above or below them.

How the values were obtained:
SERT WT [1] = target: T1, SERT WT (Homo sapiens, UniProt P31645); experiment: [3H]S-CIT competition (equilibrium) binding on COS-7 membranes; conditions: COS-7 membranes, SERT WT; read-out: Inhibition of [^3H]S-CIT binding (IC50);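 further: transiently transfected cell membranes incubated 1 h at room temperature with 5–10 nM [3H]S-CIT, nonspecific binding defined using 5 µM paroxetine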
T1 construct: expressed in transfected cells; host or cells: COS-7

SERT WT [2] = target: T1, SERT WT; experiment: [3H]S-CIT dissociation rate assay (allosteric potency); format: binding; conditions: for IC50: read-out: Allosteric potency inhibition of [^3H]S-CIT dissociation (IC50)
SERT WT [3] = target: T1, SERT WT; experiment: [3H]IMI dissociation rate assay (allosteric potency); format: binding; conditions: SERT WT; for IC50: read-out: Allosteric potency inhibition of [^3H]IMI dissociation (IC50);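 on all read-outs here: membranes of COS-7 cells transiently expressing hSERT, dissociation of prebound radioligand tracked by filtration over seven time points (5–70 min), rate constant with test ligand expressed relative to buffer-only rate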
[4] = system: extracellular 5-HT levels in rat hippocampus; experiment: Microdialysis in ventral hippocampus of freely moving rats; format: in vivo; design: extracellular 5-HT level / AUC: unit not given here; conditions: single animals;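 on extracellular 5-HT level: percent of mean basal level in three fractions before perfusion start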
SERT WT [5] = target: T1, SERT WT; experiment: [3H]5-HT uptake in intact COS-7 cells; format: cell-based; conditions: read-out: KM (5-HT); SERT WT
[6] = log conc -5.4318, listed as AE56461
[7] = log conc -5.9101, listed as AE56461
[8] = log conc -5.9101, listed as AF60098

T1 sequence (P31645 whole entry): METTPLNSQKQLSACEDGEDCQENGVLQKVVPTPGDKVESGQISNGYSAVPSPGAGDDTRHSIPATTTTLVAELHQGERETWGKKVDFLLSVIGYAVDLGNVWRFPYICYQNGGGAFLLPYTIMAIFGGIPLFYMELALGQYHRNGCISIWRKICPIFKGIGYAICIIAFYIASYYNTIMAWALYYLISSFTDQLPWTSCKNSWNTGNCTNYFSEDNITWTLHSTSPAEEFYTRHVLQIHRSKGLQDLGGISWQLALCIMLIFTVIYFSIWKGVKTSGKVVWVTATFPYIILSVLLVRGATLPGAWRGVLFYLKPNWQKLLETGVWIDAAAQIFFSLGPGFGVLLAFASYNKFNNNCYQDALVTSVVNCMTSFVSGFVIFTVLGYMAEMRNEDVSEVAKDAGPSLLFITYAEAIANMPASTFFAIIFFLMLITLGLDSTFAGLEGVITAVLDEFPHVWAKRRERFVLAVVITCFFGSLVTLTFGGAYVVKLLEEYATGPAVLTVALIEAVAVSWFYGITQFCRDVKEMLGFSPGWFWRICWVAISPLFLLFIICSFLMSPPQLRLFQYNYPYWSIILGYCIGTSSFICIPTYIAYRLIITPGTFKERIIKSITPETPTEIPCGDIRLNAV

IC50 (SERT WT [1]): 1040 nM
[^3H]S-CIT dissociation relative to control (source data Fig 3B) (SERT WT [2]; log conc -4, listed as AE56461): 0.304 and 0.27 and 0.327
[^3H]S-CIT dissociation relative to control (source data Fig 3B) (SERT WT [2]; log conc -4.47756, listed as AE56461): 0.466 and 0.496 and 0.522
[^3H]S-CIT dissociation relative to control (source data Fig 3B) (SERT WT [2]; log conc -4.95468, listed as AE56461): 0.654 and 0.732 and 0.716
[^3H]S-CIT dissociation relative to control (source data Fig 3B) (SERT WT [2]; [6]): 0.892 and 0.93 and 0.888
[^3H]S-CIT dissociation relative to control (source data Fig 3B) (SERT WT [2]; [7]): 0.912 and 1.007 and 0.973
[^3H]S-CIT dissociation relative to control (source data Fig 3B) (SERT WT [2]; log conc -6.38561, listed as AE56461): 0.927 and 1.032 and 0.97
[^3H]S-CIT dissociation relative to control (source data Fig 3B) (SERT WT [2]; log conc -6.86273, listed as AE56461): 0.952 and 1.031 and 0.987
IC50 (SERT WT [2]): 33800 nM
IC50 (SERT WT [3]): 119 nM and 120 nM
Compound: NC(=O)c1ccc2c(c1)CO[C@@]2(CCCN1CCC(c2ccc3c(c2)NC(=O)CC3)CC1)c1ccc(F)cc1 [AE, (S)-1-(4-fluorophenyl)-1-(3-(4-(2-oxo-1,2,3,4-tetrahydroquinolin-7-yl)piperidin-1-yl)propyl)-1,3-dihydroisobenzofuran-5-carboxamide]
[^3H]IMI dissociation relative to control (source data Fig 3C) (SERT WT [3]; log conc -4.4776, listed as AE56461): 0.06439 and 0.064 and 0.0867 and 0.04446 and 0.04701
[^3H]IMI dissociation relative to control (source data Fig 3C) (SERT WT [3]; [6]): 0.0763 and 0.076 and 0.0996 and 0.0916 and 0.07313
[^3H]IMI dissociation relative to control (source data Fig 3C) (SERT WT [3]; [7]): 0.1205 and 0.121 and 0.184 and 0.1786 and 0.1244
[^3H]IMI dissociation relative to control (source data Fig 3C) (SERT WT [3]; log conc -6.3856, listed as AE56461): 0.2609 and 0.261 and 0.334 and 0.3145 and 0.2627
[^3H]IMI dissociation relative to control (source data Fig 3C) (SERT WT [3]; log conc -6.8627, listed as AE56461): 0.4485 and 0.449 and 0.476 and 0.4376 and 0.458
[^3H]IMI dissociation relative to control (source data Fig 3C) (SERT WT [3]; log conc -7.3398, listed as AE56461): 0.6779 and 0.678 and 0.684 and 0.679 and 0.715
[^3H]IMI dissociation relative to control (source data Fig 3C) (SERT WT [3]; log conc -7.817, listed as AE56461): 0.9119 and 0.9318 and 0.9209 and 0.831 and 0.9158
[^3H]IMI dissociation relative to control (source data Fig 3C) (SERT WT [3]; log conc -8.2941, listed as AE56461): 1.0028 and 1.006 and 0.9639 and 1.0302 and 1.0089
[^3H]IMI dissociation relative to control (source data Fig 3C) (SERT WT [3]; log conc -8.7712, listed as AE56461): 0.9594 and 0.977 and 0.9693 and 1.1187 and 1.1091

IC50 (SERT WT [1]): 79 nM
IC50 (SERT WT [2]): 10400 nM
IC50 (SERT WT [3]): 192 nM and 190 nM
Compound: NC(=O)c1ccc2c(c1)CO[C@@]2(CCCN1CC=C(c2ccc3ccc(=O)[nH]c3c2)CC1)c1ccc(F)cc1 [AF, (S)-1-(4-fluorophenyl)-1-(3-(4-(2-oxo-1,2-dihydroquinolin-7-yl)-3,6-dihydropyridin-1(2H)-yl)propyl)-1,3-dihydroisobenzofuran-5-carboxamide]
[^3H]S-CIT dissociation relative to control (source data Fig 3B) (SERT WT [2]; log conc -4, listed as AF60098): 0.1701 and 0.2211 and 0.1573 and 0.2182 and 0.2661
[^3H]S-CIT dissociation relative to control (source data Fig 3B) (SERT WT [2]; log conc -4.47756, listed as AF60098): 0.2756 and 0.2914 and 0.2326 and 0.2923 and 0.3084
[^3H]S-CIT dissociation relative to control (source data Fig 3B) (SERT WT [2]; log conc -4.95468, listed as AF60098): 0.3758 and 0.4105 and 0.4138 and 0.4162 and 0.3863
[^3H]S-CIT dissociation relative to control (source data Fig 3B) (SERT WT [2]; log conc -5.4318, listed as AF60098): 0.7059 and 0.6013 and 0.6811 and 0.5633 and 0.7156
[^3H]S-CIT dissociation relative to control (source data Fig 3B) (SERT WT [2]; [8]): 0.8853 and 0.874 and 0.8934 and 0.8911 and 0.9427
[^3H]S-CIT dissociation relative to control (source data Fig 3B) (SERT WT [2]; log conc -6.38561, listed as AF60098): 0.9692 and 0.7987 and 0.9599 and 0.9034 and 0.9936
[^3H]S-CIT dissociation relative to control (source data Fig 3B) (SERT WT [2]; log conc -6.86273, listed as AF60098): 0.955 and 0.9328 and 0.9433 and 0.9567 and 0.9549
[^3H]IMI dissociation relative to control (source data Fig 3C) (SERT WT [3]; [8]): 0.2397 and 0.2132 and 0.1806 and 0.1901 and 0.1781
[^3H]IMI dissociation relative to control (source data Fig 3C) (SERT WT [3]; log conc -6.3856, listed as AF60098): 0.6028 and 0.4774 and 0.425 and 0.3481 and 0.3211
[^3H]IMI dissociation relative to control (source data Fig 3C) (SERT WT [3]; log conc -6.8627, listed as AF60098): 0.7993 and 0.6981 and 0.6134 and 0.5939 and 0.5386
[^3H]IMI dissociation relative to control (source data Fig 3C) (SERT WT [3]; log conc -7.3398, listed as AF60098): 0.7825 and 0.9163 and 0.612 and 0.781 and 0.6966
[^3H]IMI dissociation relative to control (source data Fig 3C) (SERT WT [3]; log conc -7.817, listed as AF60098): 0.8219 and 0.9518 and 0.9715 and 0.9341 and 0.8939

Compound: CN(C)CCCN1c2ccccc2CCc2ccccc21 [imipramine, reference compound]
AUC ([4]; Fig 6B Inset): 84 and 92 and 130 and 62 and 48 and 46 and 143 and 182 and 163 and 129 and 74 and 127 and 73
extracellular 5-HT level ([4]; Fig 6B, Time -40): 77.25 and 153.32 and 98.52 and 112.22 and 48.77 and 123.66 and 115.15 and 92.18 and 91.72 and 110.66 and 146.17

Compound: NCCc1c[nH]c2ccc(O)cc12 [5-HT, Serotonin, reference compound]
Km (SERT WT [5]): 0.52 µM
